Results on 17 compounds are retold here after article PMC3553074 (PLoS ONE, 2013).

One test concerns E. coli. Nature of the test: microbe, parasite or virus in culture. To be noted: Escherichia coli, read-out: E. coli MIC (mM).
In test [1] the target is T1, Ft-MglA (Francisella tularensis, UniProt Q5NFG1). Nature of the test: biochemical. To be noted: read-out: ΔTm (°C) ^1.
Test [2] deals with T2, Ec-SspA (Escherichia coli, UniProt P0ACA3).
T2 construct: His-tagged from pCA24N-sspA (ASKA library clone), expressed in E. coli
T2 sequence (P0ACA3 2-212): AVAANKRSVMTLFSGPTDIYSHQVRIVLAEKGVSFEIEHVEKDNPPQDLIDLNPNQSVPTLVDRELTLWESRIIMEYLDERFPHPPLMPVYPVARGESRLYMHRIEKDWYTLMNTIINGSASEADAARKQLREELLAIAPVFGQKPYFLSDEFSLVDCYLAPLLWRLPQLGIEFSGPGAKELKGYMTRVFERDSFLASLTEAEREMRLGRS
Kind of test: biochemical.

The target in test [3] is T2, Ec-SspA. Kind of test: biochemical. Set-up: differential scanning fluorometry with SYPRO Orange, shift of midpoint transition temperature of purified protein.
Test [4] has as its target T1, Ft-MglA. Kind of test: biochemical.
For test [5], the target named is F. tularensis SCHU S4 SspA fused to the zinc finger DNA binding domain of murine Zif268 (pACTR-sspA-Zif) (F. tularensis SCHU S4). Nature of the test: two-hybrid.
The mark [6] stands for this setting: read-out: ΔTm (°C) ^1 / Ft-MglA.
[7] abbreviates: read-out: ΔTm (°C) ^1 / Ec-SspA.

Values after ≈ are worked out from the molar mass of the structure shown. Structures can show the parent of a compound that is named as a salt. Where two headings read alike, the source gives them in different places.

For the compound `COC(=O)C1=CCCN(C)C1` [Arecoline hydrobromide], in the test with E. coli, the MIC was found to be 0.1 mM. For the same compound, the ΔTm at 40 µM on Ft-MglA [1] was found to be 2.8 ± 0.1 °C.
For `CCc1oc2ccccc2c1C(=O)c1cc(Br)c(O)c(Br)c1` [Benzbromarone], the MIC in the test with E. coli was 1 mM (≈ 424 µg/mL). Further, the ΔTm at 40 µM on Ec-SspA [2] (read-out: ΔTm (°C) ^1) was 30 ± 1.6 °C.
Take `C[C@H](CS)C(=O)N1CCC[C@H]1C(=O)O` [Captopril]: at Ec-SspA [3] (read-out: ΔTm (°C) ^1), the ΔTm at 40 µM stood at 9.2 ± 1.9 °C. Besides, in the test on E. coli, the MIC amounted to 1 mM (≈ 217 µg/mL).
As for `CCN(CC)C(=O)N1CCN(C)CC1` [Diethylcarbamazine citrate], the MIC in the test with E. coli was 1 mM. The ΔTm at 40 µM at Ft-MglA [1] worked out at 2.1 ± 0.1 °C.
Consider `Cc1c(N(C)CS(=O)(=O)O)c(=O)n(-c2ccccc2)n1C` [Dipyrone], for which the ΔTm at 40 µM at Ec-SspA [3] (read-out: ΔTm (°C) ^1) came to 8.9 ± 1.5 °C. Moreover, the MIC in the test with E. coli is 1 mM (≈ 311 µg/mL).
`CC1CCc2cc(F)cc3c(=O)c(C(=O)O)cn1c23` (centres unmarked) [Flumequine]: the ΔTm at 40 µM at Ft-MglA [4] (read-out: ΔTm (°C) ^1) is 17.9 ± 2.4 °C. Besides, the MIC in the test with E. coli is 0.1 mM (≈ 26.1 µg/mL).
For the compound `O=C(CCCN1CCC(O)(c2ccc(Cl)cc2)CC1)c1ccc(F)cc1` [Haloperidol], in the test on E. coli, the MIC was determined as 0.1 mM (≈ 37.6 µg/mL).
For the compound `Cc1ccc(Cl)c(Nc2ccccc2C(=O)O)c1Cl` [Meclofenamic acid], the MIC with E. coli worked out at 1 mM (≈ 296 µg/mL). For the same compound, on Ec-SspA [2] (read-out: ΔTm (°C) ^1), the ΔTm at 40 µM was found to be 22.9 ± 4.1 °C.
Regarding `COc1ccc2cc(CCC(C)=O)ccc2c1` [Nabumetone], the ΔTm at 40 µM at Ft-MglA [4] (read-out: ΔTm (°C) ^1) was 13.8 ± 0.1 °C. The MIC with E. coli came to 1 mM (≈ 228 µg/mL).
Regarding `O=C(O)c1cc2ccccc2c(Cc2c(O)c(C(=O)O)cc3ccccc23)c1O` [Pamoic acid], the MIC in the test with E. coli stood at 0.25 mM (≈ 97.1 µg/mL).
Regarding `CCCOc1ccc(C(=O)OCCN(CC)CC)cc1N` [Proparacaine hydrochloride], the ΔTm at 40 µM was 24.5 ± 4.4 °C on Ft-MglA [4] (setting [6]) and 27.9 ± 4.3 °C on Ec-SspA [3] (setting [7]). For the same compound, the MIC in the test on E. coli turned out to be 0.5 mM.
On to `CC1=C(/C=C/C(C)=C/C=C/C(C)=C/C(=O)O)C(C)(C)CCC1` [Retinoic acid], for which the values for the ΔTm at 40 µM at Ft-MglA [4] (setting [6]) and at Ec-SspA [2] (setting [7]) were 24.5 ± 3.9 °C and 23.3 ± 3.2 °C, respectively. Also, in the test on E. coli, the MIC came out at 0.5 mM (≈ 150 µg/mL).
Turning to `Cn1c(=O)c2nc[nH]c2n(C)c1=O` [Theophylline monohydrate], in the test with E. coli, the MIC is 0.1 mM. Also, the ΔTm at 40 µM at Ft-MglA [1] was found to be 2.3 ± 0.1 °C.
As for `Cc1c(Cl)cccc1Nc1ccccc1C(=O)O` [Tolfenamic acid], the ΔTm at 40 µM at Ec-SspA [3] (read-out: ΔTm (°C) ^1) turned out to be 11.6 ± 2.7 °C. Moreover, the MIC in the test with E. coli was 1 mM (≈ 262 µg/mL).
As to `C[C@H]1[C@H](C)CC[C@]2(C(=O)O)CC[C@]3(C)C(=CC[C@@H]4[C@@]5(C)CC[C@H](O)C(C)(C)[C@@H]5CC[C@]43C)[C@H]12` [Ursolic acid], the ΔTm at 40 µM on Ft-MglA [4] (read-out: ΔTm (°C) ^1) was determined as 16.3 ± 3.2 °C. Besides, the MIC in the test with E. coli was 1 mM (≈ 457 µg/mL).
On to `CCN(CC)CCCC(C)Nc1c2ccc(Cl)cc2nc2ccc(OC)cc12` (centres unmarked) [quinacrine], for which the ΔTm at 40 µM is 2.1 ± 0.9 °C at Ft-MglA [4] (setting [6]) and 15.2 ± 1.7 °C on Ec-SspA [3] (setting [7]). Besides, the MIC in the test on E. coli turned out to be 0.2 mM (≈ 80 µg/mL).
In the case of “F. tularensis SCHU S4 MglA fused to the ω subunit of E. coli RNA polymerase (pBR-mglA-ω) (natural protein)”, in test [5], the decrease of β-galactosidase activity (%) with arecoline hydrobromide was 7.8%, the decrease of β-galactosidase activity (%) with benzbromarone came out at 5.8%, the decrease of β-galactosidase activity (%) with benzethonium chloride is 18.9% and the decrease of β-galactosidase activity (%) with captopril was 16.2%. Moreover, in test [5], the decrease of β-galactosidase activity (%) with diethylcarbamazine citrate amounted to 19.3%, the decrease of β-galactosidase activity (%) with dipyrone was found to be 10.3%, the decrease of β-galactosidase activity (%) with flumequine came out at 12% and the decrease of β-galactosidase activity (%) with haloperidol worked out at 18%. In addition, in test [5], the decrease of β-galactosidase activity (%) with meclofenamic acid was determined as 13.2%, the decrease of β-galactosidase activity (%) with nabumetone was 17.1%, the decrease of β-galactosidase activity (%) with pamoic acid was found to be 15.5% and the decrease of β-galactosidase activity (%) with proparacaine hydrochloride stood at 9.8%. In test [5], this compound gave a decrease of β-galactosidase activity (%) with quinacrine dihydrochloride of 61%, a decrease of β-galactosidase activity (%) with retinoic acid of 31%, a decrease of β-galactosidase activity (%) with theophylline monohydrate of 6.5% and a decrease of β-galactosidase activity (%) with tolfenamic acid of 7.7%. Besides, the decrease of β-galactosidase activity (%) with ursolic acid in test [5] came to 16.5%.
